The results in this text go back to patent publication EP4603105A1, “PHARMACEUTICAL COMPOSITION CONTAINING CYCLIC COMPOUND HAVING SELECTIVE KRAS INHIBITORY EFFECT AGAINST HRAS AND NRAS” (CHUGAI SEIYAKU KABUSHIKI KAISHA, priority 2022, dated 2024).

Test [1] has as its target GDP-bound NRAS wild-type protein (Homo sapiens, UniProt P01111). As to the kind of experiment: Binding to NRAS by surface plasmon resonance (SPR), KD and KD ratio to KRAS. To be noted: ratio of KD for GDP-bound NRAS wild-type protein to KD for KRAS. In outline: (§1)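 Captured GDP-RAS (~100–300 RU) was exposed to increasing compound concentrations, 75 s per step, in running buffer with 10 µM GDP, 10 mM MgCl2 and 4% DMSO at pH 7.4.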

The target of the next test is HRAS wild-type protein (Homo sapiens, UniProt P01112). As to the kind of experiment: Binding to HRAS by surface plasmon resonance (SPR), KD and KD ratio to KRAS. To be noted: ratio of KD for HRAS wild-type protein to KD for KRAS. A digest of the protocol: as §1
Sequence of HRAS wild-type protein (P01112 whole entry): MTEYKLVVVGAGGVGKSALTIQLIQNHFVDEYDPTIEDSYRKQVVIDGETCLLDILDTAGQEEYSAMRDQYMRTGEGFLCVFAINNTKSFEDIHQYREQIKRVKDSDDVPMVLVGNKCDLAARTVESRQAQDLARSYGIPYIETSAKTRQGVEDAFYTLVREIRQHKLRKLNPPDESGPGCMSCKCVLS
For test [2], the target named is GDP-bound KRAS wild-type protein (Homo sapiens, UniProt P01116). The test is described as follows: Binding to KRAS by surface plasmon resonance (SPR), dissociation constant KD. To be noted: Single Cycle Kinetics. In outline:
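Affinity is measured by surface plasmon resonance at 30°C against captured, GDP-loaded RAS carrying a biotinylated Avi tag. Compounds are titrated by single-cycle kinetics, and KD comes from a 1:1 fit.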

Test [3] deals with human lung cancer strain NCI-H441. As to the kind of experiment: NCI-H441 cell proliferation inhibitory activity (CellTiter-Glo, 4 days). In kind it is cell-based. As to conditions: NCI-H441 cells, 4 days, read-out: NCl-H441 IC50. A digest of the protocol:
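Step one: dispense the test compound in serial DMSO dilutions. Step three: add the reagent and measure […].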

Sequence of GDP-bound KRAS wild-type protein (P01116 1-188 isoform P01116-2): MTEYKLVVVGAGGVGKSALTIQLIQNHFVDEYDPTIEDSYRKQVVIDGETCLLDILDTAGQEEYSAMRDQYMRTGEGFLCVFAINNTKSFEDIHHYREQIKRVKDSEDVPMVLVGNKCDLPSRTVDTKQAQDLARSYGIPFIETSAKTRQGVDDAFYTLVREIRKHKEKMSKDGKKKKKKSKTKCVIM
Sequence of GDP-bound NRAS wild-type protein (P01111 whole entry): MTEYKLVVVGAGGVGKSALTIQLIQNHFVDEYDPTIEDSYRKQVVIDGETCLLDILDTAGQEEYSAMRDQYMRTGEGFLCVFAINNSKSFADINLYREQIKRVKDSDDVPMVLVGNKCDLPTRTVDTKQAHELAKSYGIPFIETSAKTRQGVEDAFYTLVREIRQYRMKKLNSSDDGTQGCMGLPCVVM

In the case of `C#CC[C@H]1C(=O)N[C@@H]([C@@H](C)CC)C(=O)N(C2CC2)CC(=O)N(C)[C@H]2C/C=C\CCN(C2=O)[C@@H](Cc2ccc(C(F)(F)F)cc2)C(=O)N(C)CC(=O)N[C@@H](CCc2ccc(C(F)(F)F)c(OC)c2)C(=O)N2C[C@H](OCC)C[C@H]2C(=O)OC2(CCC2)C(=O)N(C)[C@@H](C2CCCC2)C(=O)N(C)[C@H](C(=O)N(C)C)CC(=O)N1C` [PP3372], in test [1], the “NRAS /KRAS” value was “A (a compound having 10 or more and less than 20 is denoted as A)”. Moreover, the “HRAS /KRAS” value at HRAS wild-type protein was “B (a compound having 3 or more and less than 10 is denoted as B)”. For the same compound, the Kd in test [2] was 1.5 nM. In addition, in test [3], the IC50 was determined as 16.8 nM.
`C#CC[C@H]1C(=O)N[C@@H]([C@@H](C)CC)C(=O)N(C)CC(=O)N(C)[C@H]2C/C=C\CCN(C2=O)[C@@H](Cc2ccc(C(F)(F)F)cc2)C(=O)N(C)CC(=O)N[C@@H](CCc2ccc(C(F)(F)F)c(OC)c2)C(=O)N2C[C@H](OCC)C[C@H]2C(=O)OC2(CCC2)C(=O)N(C)[C@@H](C2CCCC2)C(=O)N(C)[C@H](C(=O)N(C)C)CC(=O)N1C` [PP3373]: in test [1], the “NRAS /KRAS” value was “A (a compound having 10 or more and less than 20 is denoted as A)”. Moreover, the “HRAS /KRAS” value on HRAS wild-type protein is “A (a compound having 10 or more and less than 20 is denoted as A)”. In test [2], this compound showed a Kd of 0.21 nM. Besides, the IC50 in test [3] was determined as 12.5 nM.
In the case of `CCO[C@@H]1C[C@H]2C(=O)OC3(CCC3)C(=O)N(C)[C@@H](C3CCCC3)C(=O)N(C)[C@H](C(=O)N(C)C)CC(=O)N(C)[C@@H]([C@@H](C)OC)C(=O)N[C@@H]([C@@H](C)CC)C(=O)N(C3CC3)CC(=O)N(C)[C@H]3C/C=C\CCN(C3=O)[C@@H](Cc3ccc(C(F)(F)F)cc3)C(=O)N(C)CC(=O)N[C@@H](CCc3ccc(C(F)(F)F)c(OC)c3)C(=O)N2C1` [PP3375], the “NRAS /KRAS” value in test [1] is “A (a compound having 10 or more and less than 20 is denoted as A)”. The “HRAS /KRAS” value on HRAS wild-type protein is “B (a compound having 3 or more and less than 10 is denoted as B)”. This compound also yielded a Kd in test [2] of 0.41 nM. In addition, in test [3], the IC50 was found to be 6 nM.
As for `CCO[C@@H]1C[C@H]2C(=O)OC3(CCC3)C(=O)N(C)[C@@H](C3CCCC3)C(=O)N(C)[C@H](C(=O)N(C)C)CC(=O)N(C)[C@@H]([C@H](C)OC)C(=O)N[C@@H]([C@@H](C)CC)C(=O)N3CCC[C@H]3C(=O)N(C)[C@H]3C/C=C\CCN(C3=O)[C@@H](Cc3ccc(C(F)(F)F)cc3)C(=O)N(C)CC(=O)N[C@@H](CCc3ccc(C(F)(F)F)c(OC)c3)C(=O)N2C1` [PP3377], the “NRAS /KRAS” value in test [1] was “A (a compound having 10 or more and less than 20 is denoted as A)”. Also, on HRAS wild-type protein, the “HRAS /KRAS” value was “A (a compound having 10 or more and less than 20 is denoted as A)”. The affinity in test [2], expressed as Kd, was 0.53 nM. Further, the IC50 in test [3] is 11.3 nM.
As for `CCO[C@@H]1C[C@H]2C(=O)OC3(CCC3)C(=O)N(C)[C@@H](C3CCCC3)C(=O)N(C)[C@H](C(=O)N(C)C)CC(=O)N(C)[C@@H]([C@H](C)OC)C(=O)N[C@@H]([C@@H](C)CC)C(=O)N(C3CC3)CC(=O)N(C)[C@H]3C/C=C\CCN(C3=O)[C@@H](Cc3ccc(C(F)(F)F)cc3)C(=O)N(C)CC(=O)N[C@@H](CCc3ccc(C(F)(F)F)c(OC)c3)C(=O)N2C1` [PP3378], the “NRAS /KRAS” value in test [1] is “A (a compound having 10 or more and less than 20 is denoted as A)”. Besides, the “HRAS /KRAS” value at HRAS wild-type protein was “A (a compound having 10 or more and less than 20 is denoted as A)”. For the same compound, in test [2], binding was put at a Kd of 1.3 nM. The IC50 in test [3] came out at 11.6 nM.
Consider `CCO[C@@H]1C[C@H]2C(=O)OC3(CCC3)C(=O)N(C)[C@@H](C3CCCC3)C(=O)N(C)[C@H](C(=O)N(C)C)CC(=O)N(C)[C@@H]([C@H](C)OC)C(=O)N[C@@H]([C@@H](C)CC)C(=O)N(C)CC(=O)N(C)[C@H]3C/C=C\CCN(C3=O)[C@@H](Cc3ccc(C(F)(F)F)cc3)C(=O)N(C)CC(=O)N[C@@H](CCc3ccc(C(F)(F)F)c(OC)c3)C(=O)N2C1` [PP3379], for which the “NRAS /KRAS” value in test [1] was “A (a compound having 10 or more and less than 20 is denoted as A)”. For the same compound, at HRAS wild-type protein, the “HRAS /KRAS” value is “B (a compound having 3 or more and less than 10 is denoted as B)”. The compound also displayed a Kd in test [2] of 0.24 nM. Further, the IC50 in test [3] was determined as 9.5 nM.
